Test results from patent publication US11090266B2, “Nanoliposomal c-MYC-siRNA inhibits in vivo tumor growth of cisplatin-resistant ovarian cancer” (priority 2014, dated 2021).

Test system: A2780CP20 tumors
Assay: Therapeutic efficacy in A2780CP20 tumor-bearing nude mice
Assay type: in vivo
Conditions: siRNA-DOPC 5 μg siRNA/injection, CIS 160 μg/injection, i.p. once a week for 4 weeks
Experimental: c-MYC was overexpressed in cells with low c-MYC levels (A2780) (FIG. 16A). The rate of cell proliferation of these cells were higher compared with empty vectors (FIG. 16B). The effect of nanoliposomal-c-MYC-siRNA was tested on target depletion, and therapy efficacy. Nude mice were injected intraperitoneally (i.p.) with A2780CP20 cells. A nude mice-bearing tumors were injected i.p. with nanoliposomal siRNAs. Seven days post-injection, mice were sacrificed and the tumors were dissected. As shown is FIG. 18A, the anti-tumor effects of nanoliposomal-c-MYC-siRNA as compared to C-siRNA were tested in tumor-bearing mice. […] All nanoliposomal-c-MYC-siRNAs and CIS treatments were injected i.p. once a week for 4 weeks. In vitro experiments were repeated in HEYA8 ovarian cancer cells which express high c-MYC levels (FIG. 19A-19D). Additional liposomal c-MYc-siRNA formulation was performed (FIG. 20A-20D) and FIGS. 22 and 23). […]
As shown in FIG. 16A-16B the directed effect effects of c-MYC overexpression in ovarian cancer cells. […] Cell viability was calculated. […]
DOPC-PEG-cholesterol-based nanoliposomes were used for in vivo c-MYC-siRNA delivery. First, we assessed whether the c-MYC silencing in vivo. […] Tumor weight and number of nodules were assessed in five treatment groups (10 mice each): (a) C-siRNA, (b) cisplatin (CIS) alone, (c) c-MYC-siRNA, (d) C-siRNA plus CIS, and (e) c-MYC-siRNA plus CIS. […]

`N.N.[Cl][Pt][Cl]` [CIS, cisplatin] was tested, and the “tumor weight / tumor growth” value was “did not induce a significant effect on tumor growth”.
